Measured values from the OligoGym collection.
Bases are written 5' to 3'; sugars and linkages follow in the same order, as letters with counts (s phosphorothioate, o phosphodiester; PS: all linkages phosphorothioate). C may stand for cytosine or 5-methylcytosine; the collection does not tell. l = locked nucleic acid (LNA); d = 2'-deoxy (DNA)

Biological target: HIF1A
Experiment: HeLa, 100 nM transfected, 24 h, mean of 3
Conditions: ASO

Sequence	caspase activation (% of PBS control)
GTTACTGCCTTCTTAC (sugars l2 d9 l1 d1 l3, PS)	157
GTTACTGCCTTCTTAC (sugars l2 d9 l1 d2 l2, PS)	120
GTTACTGCCTTCTTAC (sugars l2 d9 l1 d3 l1, PS)	107
GTTACTGCCTTCTTAC (sugars l2 d9 l2 d1 l2, PS)	223
GTTACTGCCTTCTTAC (sugars l2 d9 l2 d2 l1, PS)	199
GTTACTGCCTTCTTAC (sugars l2 d9 l3 d1 l1, PS)	333
GTTACTGCCTTCTTAC (sugars l2 d9 l5, PS)	328
GTTACTGCCTTCTTAC (sugars l2 d10 l1 d1 l2, PS)	128
GTTACTGCCTTCTTAC (sugars l2 d10 l1 d2 l1, PS)	123
GTTACTGCCTTCTTAC (sugars l2 d10 l2 d1 l1, PS)	151
GTTACTGCCTTCTTAC (sugars l2 d10 l4, PS)	151
GTTACTGCCTTCTTAC (sugars l2 d11 l1 d1 l1, PS)	129
GTTACTGCCTTCTTAC (sugars l2 d11 l3, PS)	122
GTTACTGCCTTCTTAC (sugars l2 d12 l2, PS)	103
GTTACTGCCTTCTTAC (sugars l2 d13 l1, PS)	102
GTTACTGCCTTCTTAC (sugars l3 d1 l1 d6 l5, PS)	474
GTTACTGCCTTCTTAC (sugars l3 d1 l1 d7 l4, PS)	324
GTTACTGCCTTCTTAC (sugars l3 d1 l1 d8 l3, PS)	264
GTTACTGCCTTCTTAC (sugars l3 d1 l1 d9 l2, PS)	185
GTTACTGCCTTCTTAC (sugars l3 d1 l1 d10 l1, PS)	185
GTTACTGCCTTCTTAC (sugars l3 d8 l1 d1 l3, PS)	197
GTTACTGCCTTCTTAC (sugars l3 d8 l1 d2 l2, PS)	204
GTTACTGCCTTCTTAC (sugars l3 d8 l1 d3 l1, PS)	198
GTTACTGCCTTCTTAC (sugars l3 d8 l2 d1 l2, PS)	243

Sequence	caspase activation (% of PBS control)
GTTACTGCCTTCTTAC (sugars l3 d8 l2 d2 l1, PS)	273
GTTACTGCCTTCTTAC (sugars l3 d8 l3 d1 l1, PS)	360
GTTACTGCCTTCTTAC (sugars l3 d8 l5, PS)	379
GTTACTGCCTTCTTAC (sugars l3 d9 l1 d1 l2, PS)	188
GTTACTGCCTTCTTAC (sugars l3 d9 l1 d2 l1, PS)	185
GTTACTGCCTTCTTAC (sugars l3 d9 l2 d1 l1, PS)	202
GTTACTGCCTTCTTAC (sugars l3 d9 l4, PS)	165
GTTACTGCCTTCTTAC (sugars l3 d10 l1 d1 l1, PS)	161
GTTACTGCCTTCTTAC (sugars l3 d10 l3, PS)	134
GTTACTGCCTTCTTAC (sugars l3 d11 l2, PS)	136
GTTACTGCCTTCTTAC (sugars l3 d12 l1, PS)	127
GTTACTGCCTTCTTAC (sugars l4 d7 l1 d1 l3, PS)	253
GTTACTGCCTTCTTAC (sugars l4 d7 l1 d2 l2, PS)	255
GTTACTGCCTTCTTAC (sugars l4 d7 l1 d3 l1, PS)	250
GTTACTGCCTTCTTAC (sugars l4 d7 l2 d1 l2, PS)	291
GTTACTGCCTTCTTAC (sugars l4 d7 l2 d2 l1, PS)	264
GTTACTGCCTTCTTAC (sugars l4 d7 l3 d1 l1, PS)	444
GTTACTGCCTTCTTAC (sugars l4 d7 l5, PS)	461
GTTACTGCCTTCTTAC (sugars l4 d8 l1 d1 l2, PS)	218
GTTACTGCCTTCTTAC (sugars l4 d8 l1 d2 l1, PS)	209
GTTACTGCCTTCTTAC (sugars l4 d8 l2 d1 l1, PS)	284
GTTACTGCCTTCTTAC (sugars l4 d8 l4, PS)	272
GTTACTGCCTTCTTAC (sugars l4 d9 l1 d1 l1, PS)	191
GTTACTGCCTTCTTAC (sugars l4 d9 l3, PS)	160

Sequence	caspase activation (% of PBS control)
GTTACTGCCTTCTTAC (sugars l4 d10 l2, PS)	190
GTTACTGCCTTCTTAC (sugars l4 d11 l1, PS)	159
GTTACTGCCTTCTTAC (sugars l5 d6 l1 d1 l3, PS)	441
GTTACTGCCTTCTTAC (sugars l5 d6 l1 d2 l2, PS)	442
GTTACTGCCTTCTTAC (sugars l5 d6 l1 d3 l1, PS)	454
GTTACTGCCTTCTTAC (sugars l5 d6 l2 d1 l2, PS)	488
GTTACTGCCTTCTTAC (sugars l5 d6 l2 d2 l1, PS)	492
GTTACTGCCTTCTTAC (sugars l5 d6 l3 d1 l1, PS)	603
GTTACTGCCTTCTTAC (sugars l5 d6 l5, PS)	624
GTTACTGCCTTCTTAC (sugars l5 d7 l1 d1 l2, PS)	454
GTTACTGCCTTCTTAC (sugars l5 d7 l1 d2 l1, PS)	446
GTTACTGCCTTCTTAC (sugars l5 d7 l2 d1 l1, PS)	515
GTTACTGCCTTCTTAC (sugars l5 d7 l4, PS)	574
GTTACTGCCTTCTTAC (sugars l5 d8 l1 d1 l1, PS)	457
GTTACTGCCTTCTTAC (sugars l5 d8 l3, PS)	512
GTTACTGCCTTCTTAC (sugars l5 d9 l2, PS)	363
GTTACTGCCTTCTTAC (sugars l5 d10 l1, PS)	284
GTTACTGCCTTCTTAC (sugars lddddddddddldldl, PS)	115
GTTACTGCCTTCTTAC (sugars ldddlddddddddldl, PS)	159
GTTACTGCCTTCTTAC (sugars ldddldddddddlddl, PS)	142
GTTACTGCCTTCTTAC (sugars ldddldddddddldll, PS)	135
GTTACTGCCTTCTTAC (sugars ldddldddddddlldl, PS)	245
GTTACTGCCTTCTTAC (sugars ldddlddddddldddl, PS)	137
GTTACTGCCTTCTTAC (sugars ldddlddddddlddll, PS)	133
